Experimental data taken from patent publication US20100004174A1, “USE OF THYMOSIN ALPHA 1 FOR THE PREPARATION OF A MEDICAMENT FOR THE PREVENTION AND TREATMENT OF AUTOIMMUNE DISEASES” (SIGMA-TAU INDUSTRIE FARMACEUTICHE, priority 2006, published 2010).
No end group written: not given here.

Assays:
[1] = test system: EAE (experimental autoimmune encephalitis); assay: EAE model induced with MOG35-55 peptide in mice, clinical score and spinal cord histology; type: in vivo, C57BL6 mice
Experimental: To this end, an EAE model was used envisaging the induction of disease by administering a peptide deriving from myelin in susceptible animals. The anima were treated with thymosin alpha 1, whose efficiency was evaluated according to clinical and histological parameters.
EAE is induced in C57BL6 mice by injecting 100 microlitres of emulsion consisting of 100 microgrammes of MOG35-55 (a peptide fragment of a myelinic glycoprotein) in complete Freund adjuvant (CFA, 4 microgrammes/ml) at the base of the tail. EAE induction is favoured by the intraperitoneal administration of the pertoxic toxin at a dosage of 200 ng/mouse the day of immunisation and three days later. The treatment with thymosin alpha 1 (200 ng/Kg) is carried out via intraperitoneal injection according to two experimental designs. In the first case, thymosin is administered starting from the day of MOG administration and for three consecutive days thereafter (Tα1+MOG). In the second case, thymosin is administered starting from the tenth day after MOG administration and for three consecutive days thereafter (MOG+Tα1).
The mice were clinically evaluated daily according to the following parameters: 0, normal; 1, flacid tail or weakness of hind legs; 2, flacid tail associated with weakness of hind legs; 3, partial paralysis of hind legs; 4, total paralysis of hind legs; 5, moribund state. […]

[2] = test system: CD4+CD25+ lymphocytes isolated from the lamina propria; assay: Cytokine determination by ELISA on CD4+CD25+ lamina propria lymphocytes of mice with TNBS colitis; type: in vivo; details: TNBS+Tα1 mice; cells stimulated in vitro 48 h with anti-CD3 and anti-CD28, FIG. 4
Experimental: (§1) Treatment with thymosin alpha 1. Tα1 (purchased from Sigma, St. Louis, Mo., USA; product no. T3410; molecular formula C129H215N33O55) and the scrambled peptide were provided in the form of sterile dried powders. The powders were reconstituted in sterile water (endotoxin levels were <0.03 pg/ml, by standard Limulus lysate assay). Thymosin alpha 1 was administered at a dosage of 200 microgrammi/kg by intraperitoneal injection for 6 consecutive days starting from the day of TNBS colitis induction.
Cytokine determination. This was carried out via specific ELISA tests (ELISA kit, R&D Systems Inc, Minneapolis, Minn.) on the supernatants of lymphocyte cell cultures of CD4^+CD^25+ phenotype isolated from the lamina propria and stimulated in vitro for 48 h with antibodies directed against CD3 and CD28 molecules expressed on the lymphocytes (PharMingen, BD, Palo Alto, Calif.).
(§2) All the inflammatory and cytokine assessments were carried out the day after the end of treatment with thymosin alpha 1.

[3] = test system: TNBS colitis; assay: TNBS-induced colitis model of IBD (DAS, MAS, MPO); type: in vivo, mice
Experimental: To this end, an IBD model was used envisaging the induction of the disease by intracolonic administration of a haptenised derivative of trinitrobenzene sulfonic acid (TNBS). The animals were treated with thymosin alpha 1, whose efficacy was evaluated according to clinical, histological and immunological parameters.
The application of hapten TNBS in the colon causes acute and chronic colitis in the rodents (Fiorucci S, Antonelli E, Distrutti E, Del Soldato P, Flower R J, Clark M J, Morelli A, Perretti M, Ignarro L J. NCX-1015, a nitric-oxide derivative of prednisolone, enhances regulatory T cells in the lamina propria and protects against 2,4,6-trinitrobenzene sulfonic acid-induced colitis in mice. Proc Natl Acad Sci U S A. 2002, 99:15770-5).
The animals were monitored daily for any onset of diarrhea, loss of body weight, blood in the faeces and to check their survival (correlated with the degree of activity of the disease, DAS). At the end of the experiment, the surviving mice were sacrificed, their colon dissected and the microscopic damage was evaluated (called mucosal activity score—MAS). The tissue segments were then used in order to measure the Myeloperoxidase (MPO) activity (an inflammation index).
The sectioned colons were examined under a microscope (×5) and classified according to their microscopic lesions on a scale from 0 to 10 based on criteria reflecting the inflammation, such as hyperemia, bowel thickening, and extension of ulcers.
MPO assays. Neutrophil infiltration in the colon was monitored by measuring MPO activity by means of a spectrophotometric assay with trimethylbenzidine (TMB) as a substrate according to a previously published method (Fiorucci S, Antonelli E, Distrutti E, Del Soldato P, Flower R J, Clark M J, Morelli A, Perretti M, Ignarro L J. NCX-1015, a nitric-oxide derivative of prednisolone, enhances regulatory T cells in the lamina propria and protects against 2,4,6-trinitrobenzene sulfonic acid-induced colitis in mice. Proc Natl Acad Sci U S A. 2002, 99:15770-5). The activity is expressed in U per mg of protein.
as §1, §2

[4] = TNBS colitis, 200 microgrammi/kg intraperitoneal for 6 consecutive days, assessed the day after end of treatment, FIG. 3

## thymosin alpha 1 (Ac-SDAAVDTSSEITTKDLKEKKEVVEEAEN; ends and bridges not checked; UniProt P06454 2-29, looked up) [thymic peptide found in nature; purchased from Sigma, product no; T3410]
[1]; MOG-immunised mice treated with thymosin alpha 1, FIG. 2
  de-myelination, histological analysis of semifine spinal chord sections coloured with osmium tetroxide: no significant sign of de-myelination
[1]; conclusion from FIG. 1 and FIG. 2
  overall effect on EAE incidence and neuropathological severity: protective effect
[2]
  IL-10 production: clear prevalence of IL-10 production
  inflammatory/anti-inflammatory cytokine production pattern (IFN-γ, IL-17, IL-10): significantly disrupted
[3]; [4]
  DAS (degree of activity of the disease): drastic reduction
  MAS (mucosal activity score): drastic reduction
  MPO (myeloperoxidase) activity in colon: drastic reduction
[3]; experimental models of colitis, conclusion
  overall effect on the severity of IBD: protective effect
